Reference: ChEMBL document CHEMBL3044814, “Seasonal changes in chemical composition of epicuticular waxes from the leaves of Baccharis linearis” (1999)
In brackets after ≈: the same amount, converted by molar mass.

Columns and labels:
[1] = tested on: Artemia salina; test: Toxicity against Artemia salina (brine shrimp); assay type: functional
[2] = tested on: Spodoptera littoralis; test: Antifeedant activity against fifth-instar larvae of Spodoptera littoralis at 10 ug/cm'2 by disk-choice assay; assay type: functional

SMILES: CC(=O)Oc1ccc(/C=C/C(=O)O)cc1CC=C(C)C
- LC50 [1]: < 50 µg/mL

SMILES: CC(=O)OC/C=C(/CC[C@@]1(C)[C@H](C)CC[C@@]2(CO)C(COC(C)=O)=CCC[C@@H]21)COC(C)=O
- FR50 [2]: 0.99
- LC50 [1]: > 100 µg/mL

SMILES: COc1cc(-c2oc3cc(O)cc(O)c3c(=O)c2OC)ccc1O [3,3'-O-DIMETHYLQUERCETIN]
- LC50 [1]: ≤ 10 µg/mL

SMILES: COc1c(-c2ccc(O)c(O)c2)oc2cc(O)cc(O)c2c1=O [3-O-METHYLQUERCETIN]
- LC50 [1]: 10 µg/mL (≈ 31.6 µM)

SMILES: C=C(COC(C)=O)C1Cc2cc(O)c(C(C)=O)cc2O1 (centres undefined) [ACETYLATED DIHYDROBENZOFURAN]
- FR50 [2]: 0.75
- LC50 [1]: ≤ 10 µg/mL

SMILES: CC1(C)CC[C@]2(CO)CC[C@]3(C)C(=CC[C@@H]4[C@@]5(C)CC[C@H](O)C(C)(C)[C@@H]5CC[C@]43C)[C@@H]2C1 [ERYTHRODIOL]
- FR50 [2]: 0.88
- LC50 [1]: 50 µg/mL (≈ 113 µM)

SMILES: COc1c(-c2ccc(O)cc2)oc2cc(O)cc(O)c2c1=O [ISOKAEMPFERIDE]
- LC50 [1]: ≤ 10 µg/mL

SMILES: CCCC#CC#C/C=C/C(=O)OC [LACHNOPHYLLUM ESTER]
- FR50 [2]: 0.31
- LC50 [1]: 5 µg/mL (≈ 28.4 µM)

SMILES: CC1(C)CC[C@]2(C(=O)O)CC[C@]3(C)C(=CC[C@@H]4[C@@]5(C)C[C@@H](O)[C@H](O)C(C)(C)[C@@H]5CC[C@]43C)[C@@H]2C1 [MASLINIC ACID]
- FR50 [2]: 1.34
- LC50 [1]: 20.2 µg/mL (≈ 42.7 µM)

SMILES: CC1(C)CC[C@]2(C(=O)O)CC[C@]3(C)C(=CC[C@@H]4[C@@]5(C)CC[C@H](O)C(C)(C)[C@@H]5CC[C@]43C)[C@@H]2C1 [OLEANOLIC_ACID]
- FR50 [2]: 1.34
- LC50 [1]: 10 µg/mL (≈ 21.9 µM)

SMILES: C=C1CC[C@@H]2[C@H]([C@H]3[C@H]1CC[C@]3(C)O)C2(C)C [SPATHULENOL]
- LC50 [1]: < 3 µg/mL

SMILES: COC(=O)/C=C/c1ccc2c(c1)C=CC(C)(C)O2 [WERNERIACHROMENE]
- FR50 [2]: 0.2
- LC50 [1]: < 3 µg/mL
